Patent US20170029355A1, “LABILE ESTERS OF AGROCHEMICALS FOR CONTROLLED RELEASE AND REDUCTION OF OFF-SITE MOVEMENT” (Monsanto Technology LLC, priority 2011, published 2017)

Columns and labels:
[1] = In vitro dicamba photo-release from photo-labile dicamba esters, tetrahydrofuran solvent (Example 26); assay type: physicochemical; conditions: THF, 0.1 mM ester
Experimental: This Example describes in vitro testing of dicamba photo-release by homogeneous solutions of photo-labile dicamba esters. The esters were dissolved in tetrahydrofuran (THF). Ester concentration was 0.1 mM. 25 ml of the solution was transferred to 22 mm tubes fabricated from graded seal quartz tubing with a 19/22 tapered seal at the top, which was closed with a tapered glass plug and secured with a plastic ring clamp. The solution was entirely below the quartz-to-glass transition, ensuring that the entire volume was exposed to the full spectrum.
The sealed tubes were placed in a Growth Chamber where they were exposed to simulated sunlight for 14 hours per day at 35° C. Dicamba concentrations in the solution were measured during the course of the photolysis.
A sample of the initial solution was reserved in a glass vial away from the light source and analyzed at the conclusion of the study, providing a measurement of the amount of dicamba present without illumination of the photolysis solution (the “dark control”).

[2] = test system: glyphosate-tolerant, dicamba-sensitive soy plants; test: Humidome volatility injury to dicamba-sensitive plants (Example 31); conditions: assessed after three weeks in greenhouse
Source text: In this case, the diglycolamine salt of dicamba (CLARITY®) was used for comparison.
Dicamba photo-labile ester formulations from Example 28 were mixed with a commercial glyphosate formulation (ROUNDUP POWERMAX®) and diluted to provide a solution with a 0.5% dicamba equivalent concentrate of the ester (or dicamba diglycolamine salt) and 1.5% concentrate of glyphosate. The mixtures were sprayed at a 10 gallon per acre (93.5 liters per hectare) rate on soil in a plastic container (“humidome”) with a transparent lid. One soil container was sprayed with water as a control. Four glyphosate-tolerant, dicamba-sensitive soy plants between V2 and V3 stage were immediately placed on the sprayed soil and the domes attached to the trays with binder clips. The soy plants were in pots placed directly on the soil but with aluminum foil wrapped around the bottom to prevent uptake of dicamba or dicamba esters through the roots.
The closed containers were held for 24 hours in a growth chamber which was maintained at 35° C. with 40% relative humidity. The plants were then removed and grown in a greenhouse for three weeks. At this time plant injury and growth stage were assessed compared to the control treated with water only.

velvetleaf [3] = test: Greenhouse post-emergent control of velvetleaf by emulsifiable concentrates (Example 29); assay type: in vivo; conditions: three weeks after treatment
Experimental: The efficacy of some photo-labile ester formulations from Example 28 for post-emergent control of velvetleaf was tested in the greenhouse. All formulations were tested at rates of 140, 280, 420, and 560 g dicamba equivalent per hectare rates and compared to the diglycolamine salt of dicamba (CLARITY®) at the same rates and untreated control plants. The velvetleaf plants were 10-15 cm in height at the time of spraying. Percent control was evaluated three weeks after treatment.

broadleaf weeds = test: Control of broadleaf weeds by ester concentrates (statements of the description); assay type: in vivo
[4] = In vitro photo-release and hydrolytic release of dicamba in an aqueous medium (Example 35); assay type: physicochemical; conditions: 0.01 mM ester, 35° C.
Experimental: This Example describes the determination of photo-lability and hydrolytic lability of dicamba esters in an aqueous medium. 1 mM solutions of the esters were prepared in acetonitrile (or […] solutions of dicamba diesters). The solutions were then diluted with deionized water to a concentration of 0.01 mM (or 0.005 mM for diesters). The solutions were then transferred to quartz tubes and amber bottles and held in a growth chamber by the procedure of Example 26. A 14-hour day was generally used at a constant temperature of 35° C. Hydrolytic activity was assessed by measuring the increase in dicamba concentration after day zero in the amber (dark) bottles. […] Photolysis manifested itself as increased conversion in the quartz tubes compared to the dark control.

morning glory = test: Field testing of emulsifiable concentrates, post-emergent control (Example 38); assay type: in vivo
Source text: (§1) Four dicamba esters, 1a, 2, 9, and 13a, were formulated as emulsifiable concentrates for field testing. All formulations contained 5% each of a alkylbenzene sulfonate calcium salt (Huntsman NANSA EVM 62/H or Akzo Nobel WITCONATE P-1220 EH) and castor oil ethoxylate (Huntsman SURFONIC CO-54) as the emulsifiers and Aromatic 200 (Exxon) or monochlorobenzene (MCB) as the solvent.
(§2) The esters were compared to the diglycolamine salt of dicamba (CLARITY™) for post-emergent control of three broadleaf weeds: velvetleaf, morning glory, and hemp sesbania. Rates of 280 and 420 g dicamba acid equivalent per hectare were used. […] Evaluations were conducted at 11 or 21 days after treatment. Locations and timing were identical for all formulations tested.

velvetleaf [5] = test: as above; assay type: in vivo
Source text: as §1, §2

hemp sesbania = test: as above; assay type: in vivo
Source text: as §1, §2

[6] = 280 and 420 g dicamba acid equivalent per hectare
[7] = 280 g dicamba acid equivalent per hectare, 11 or 21 days after treatment
[8] = 420 g dicamba acid equivalent per hectare, 11 or 21 days after treatment

SMILES: COc1c(Cl)ccc(Cl)c1C(=O)OCCc1ccccc1[N+](=O)[O-] [Ester 2, 2-Nitrophenethyl Ester of Dicamba]
- Dark Control % dicamba ([1]; initial solution kept away from the light source, analyzed at conclusion of study): 0%
- Conversion to dicamba, 1 day ([1]; simulated sunlight 14 hours per day, 35° C., 1 day): 46%
- Conversion to dicamba, 2 days ([1]; simulated sunlight 14 hours per day, 35° C., 2 days): 54%
- Conversion to dicamba, 3 days ([1]; simulated sunlight 14 hours per day, 35° C., 3 days): 72%
- Conversion to dicamba, 5 days ([1]; simulated sunlight 14 hours per day, 35° C., 5 days): 84%
- Conversion to dicamba, 7 days ([1]; simulated sunlight 14 hours per day, 35° C., 7 days): 88%
- Conversion to dicamba, 9 days ([1]; simulated sunlight 14 hours per day, 35° C., 9 days): 98%
- Conversion to dicamba, 12 days ([1]; simulated sunlight 14 hours per day, 35° C., 12 days): 96%
- Conversion to dicamba, 15 days ([1]; simulated sunlight 14 hours per day, 35° C., 15 days): 95%
- % Injury ([2]; soy plants 24 hours in closed humidome over sprayed soil (0.5% dicamba equivalent + 1.5% glyphosate), 35° C.): 13%
- Growth Stage ([2]; soy plants 24 hours in closed humidome over sprayed soil): 9
- % Control of velvetleaf, 140 g/ha (velvetleaf [3]; 140 g dicamba equivalent per hectare): 50%
- % Control of velvetleaf, 280 g/ha (velvetleaf [3]; 280 g dicamba equivalent per hectare): 69%
- % Control of velvetleaf, 420 g/ha (velvetleaf [3]; 420 g dicamba equivalent per hectare): 78%
- % Control of velvetleaf, 560 g/ha (velvetleaf [3]; 560 g dicamba equivalent per hectare): 90%
- control of a number of broadleaf weeds in field testing, in words (broadleaf weeds; emulsifiable and suspension concentrates, Sesbania macrocarpa, morning glory, velvetleaf, Palmer amaranth, fat hen, sicklepod): proven effective
- field efficacy for control of broadleaf weeds compared with the diglycolamine salt of dicamba, in words (broadleaf weeds; field tests of emulsifiable concentrates): slightly more effective than the diglycolamine salt of dicamba
- Conversion to Dicamba, Dark, Day 0 ([4]; amber (dark) bottle, Day 0): 3%
- Conversion to Dicamba, Dark, Day 1 ([4]; amber (dark) bottle, Day 1): 3%
- Conversion to Dicamba, Dark, Day 2 ([4]; amber (dark) bottle, Day 2): 3%
- Conversion to Dicamba, Dark, Day 3 ([4]; amber (dark) bottle, Day 3): 3%
- Conversion to Dicamba, Dark, Day 4 ([4]; amber (dark) bottle, Day 4): 3%
- Conversion to Dicamba, Dark, Day 7 ([4]; amber (dark) bottle, Day 7): 3%
- Conversion to dicamba, Dark, Day 10 ([4]; amber (dark) bottle, Day 10): 3%
- Conversion to Dicamba, Dark, Day 14 ([4]; amber (dark) bottle, Day 14): 3%
- Conversion to Dicamba, Dark, Day 21 ([4]; amber (dark) bottle, Day 21): 3%
- Conversion to Dicamba, Dark, Day 28 ([4]; amber (dark) bottle, Day 28): 3%
- Conversion to Dicamba, Light, Day 0 ([4]; quartz tube, 14-hour day, Day 0): 3%
- Conversion to Dicamba, Light, Day 1 ([4]; quartz tube, 14-hour day, Day 1): 78%
- Conversion to Dicamba, Light, Day 2 ([4]; quartz tube, 14-hour day, Day 2): 79%
- Conversion to Dicamba, Light, Day 3 ([4]; quartz tube, 14-hour day, Day 3): 75%
- Conversion to Dicamba, Light, Day 4 ([4]; quartz tube, 14-hour day, Day 4): 77%
- Conversion to Dicamba, Light, Day 7 ([4]; quartz tube, 14-hour day, Day 7): 78%
- Conversion to dicamba, Light, Day 10 ([4]; quartz tube, 14-hour day, Day 10): 84%
- Conversion to Dicamba, Light, Day 14 ([4]; quartz tube, 14-hour day, Day 14): 82%
- Conversion to Dicamba, Light, Day 21 ([4]; quartz tube, 14-hour day, Day 21): 83%
- Conversion to Dicamba, Light, Day 28 ([4]; quartz tube, 14-hour day, Day 28): 86%
- post-emergent control of morning glory compared with the dicamba salt, in words (morning glory; [6]): equivalent to the dicamba salt
- % control, 280 g/ha, Morning glory (morning glory; [7]): 94%
- % control, 420 g/ha, Morning glory (morning glory; [8]): 95%
- post-emergent control of velvetleaf compared with the dicamba salt, in words (velvetleaf [5]; [6]): equivalent to the dicamba salt
- % control, 280 g/ha, Velvetleaf (velvetleaf [5]; [7]): 85%
- % control, 420 g/ha, Velvetleaf (velvetleaf [5]; [8]): 92%
- post-emergent control of hemp sesbania compared with the dicamba salt, in words (hemp sesbania; [6]): equivalent to the dicamba salt
- % control, 280 g/ha, Hemp sesbania (hemp sesbania; [7]): 92%
- % control, 420 g/ha, Hemp sesbania (hemp sesbania; [8]): 97%
